Assay results reported in patent US12091708B2, “Compositions and methods targeting the Th2 pathway for the treatment of asthma” (THE CHILDREN'S HOSPITAL OF PHILADELPHIA, priority 2017, dated 2024).

Biological target: T1, CRTH2 receptor (Homo sapiens, UniProt Q9Y5Y4)
T1 construct: CD3+ cells were isolated from the rested PBMCs using Human T-Expander CD3/CD28 Dynabeads; endogenous in cells; host or cells: primary human CD3+/CD28+ T cells purified from PBMCs of healthy volunteers, expanded 10 days under TH2-skewing conditions
T1 sequence (Q9Y5Y4 1-395): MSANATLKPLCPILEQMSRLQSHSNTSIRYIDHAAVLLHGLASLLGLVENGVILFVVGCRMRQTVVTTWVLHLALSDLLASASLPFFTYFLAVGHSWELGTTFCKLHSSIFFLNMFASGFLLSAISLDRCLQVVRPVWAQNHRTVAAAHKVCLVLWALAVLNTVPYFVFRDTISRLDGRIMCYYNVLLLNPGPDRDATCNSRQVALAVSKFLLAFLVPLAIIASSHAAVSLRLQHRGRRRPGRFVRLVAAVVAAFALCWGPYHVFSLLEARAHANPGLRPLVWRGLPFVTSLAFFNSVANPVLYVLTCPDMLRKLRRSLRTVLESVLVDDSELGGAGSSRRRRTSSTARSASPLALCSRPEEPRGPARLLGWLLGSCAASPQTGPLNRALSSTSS
Experiment: CRTH2 assay: IL-13 expression (qPCR) in expanded, TH2-skewed T cells stimulated with PGD2 with or without CD3/CD28
Type: cell-based
Conditions: T cells from healthy human volunteers, increasing concentrations of PGD2, with CD3/CD28 stimulation (FIG. 4)
Method: As discussed above, CRTH2 is a key regulator of TH2 cytokine expression and action. We developed a CRTH2 assay to determine the effects of the SNP, rs2786098, on CRTH2 expression and action. The CRTH2 assay was developed using the following protocol. PBMCs were thawed and placed into 10 ml of RPMI+20% FBS in 15 ml conical tubes. Tubes were closed tightly, and placed on a rocker in the incubator overnight. Viable cell counts were obtained the following day. CD3+ cells were isolated from the rested PBMCs using Human T-Expander CD3/CD28 Dynabeads. These magnetic beads were used to purify CD3+/CD28+ T cells from the PBMC mixture, and then left in the cell culture to provide stimulation and co-stimulation to induce expansion of the T cells. Purified T cells were cultured with the beads in the presence of IL-2, IL-4, anti-IFNγ, and anti-IL-12. IL-2 provides a proliferative stimulus, while IL-4, anti-IFNγ, and anti-IL-12 provide TH2 skewing conditions. Cells were cultured, and culture volume was increased as required, for 10 days, at which point, they were stimulated at 500,000 cells per well with the indicated stimuli for 8 hours. Cell pellets were harvested and RNA was extracted. Gene expression was determined by qPCR. […]

CCCCC[C@H](O)/C=C/[C@H]1C(=O)C[C@H](O)[C@@H]1C/C=C\CCCC(=O)O [PGD2, Prostaglandin D2]
IL-13 production on stimulation: additional IL-13 was produced
